Values of other authors, collected in patent US11912734B2, “Solid-phase synthesis of oligonucleotides containing N6-(2-deoxy-alpha,beta-derythropentofuranosyl)-2,6-diamino-4-hydroxy-5-formamidopyrimidine (Fapy⋅dG)” (The Johns Hopkins University, priority 2020, dated 2024).

How the values were obtained:
[1] = target: hOGG1 (Homo sapiens, UniProt O15527); conditions: dC versus dA opposite the lesion
[2] = target: MutY (Escherichia coli, UniProt P17802); conditions: relative to 8-OxodGuo:dA duplex; more rapid than from a dG:dA mispair
[3] = target: Fpg (Escherichia coli, UniProt P05523); conditions: Fapy·dG:dC versus Fapy·dG:dA
Chain of Fpg (P05523 whole entry): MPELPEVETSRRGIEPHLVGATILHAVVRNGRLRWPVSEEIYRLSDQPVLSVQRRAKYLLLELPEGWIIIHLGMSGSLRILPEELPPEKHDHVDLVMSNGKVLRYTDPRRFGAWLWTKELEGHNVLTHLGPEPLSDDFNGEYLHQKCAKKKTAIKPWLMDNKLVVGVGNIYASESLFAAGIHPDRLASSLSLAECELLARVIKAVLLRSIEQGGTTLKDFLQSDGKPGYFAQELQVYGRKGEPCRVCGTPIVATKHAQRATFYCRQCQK

Chain of MutY (P17802 whole entry): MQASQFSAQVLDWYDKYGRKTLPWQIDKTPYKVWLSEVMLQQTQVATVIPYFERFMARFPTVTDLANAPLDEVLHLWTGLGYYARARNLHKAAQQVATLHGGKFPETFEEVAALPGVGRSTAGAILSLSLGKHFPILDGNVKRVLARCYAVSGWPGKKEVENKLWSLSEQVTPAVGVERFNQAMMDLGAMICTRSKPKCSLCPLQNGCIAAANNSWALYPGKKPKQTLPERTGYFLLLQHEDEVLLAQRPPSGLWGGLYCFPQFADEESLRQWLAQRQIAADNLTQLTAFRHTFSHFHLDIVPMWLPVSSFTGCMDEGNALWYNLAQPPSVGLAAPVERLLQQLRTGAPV
Chain of hOGG1 (O15527 whole entry): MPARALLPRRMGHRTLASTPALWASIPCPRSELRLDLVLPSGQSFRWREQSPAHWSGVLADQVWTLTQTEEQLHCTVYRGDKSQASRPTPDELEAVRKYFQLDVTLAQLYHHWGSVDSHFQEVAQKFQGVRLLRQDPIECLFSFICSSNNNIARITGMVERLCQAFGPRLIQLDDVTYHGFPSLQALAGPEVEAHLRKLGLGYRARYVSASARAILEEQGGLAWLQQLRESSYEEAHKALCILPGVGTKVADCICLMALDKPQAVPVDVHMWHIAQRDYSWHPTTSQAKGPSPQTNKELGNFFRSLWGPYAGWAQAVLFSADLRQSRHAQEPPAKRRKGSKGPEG

Nc1nc(O)c(NC=O)c(NC2C[C@H](O)[C@@H](CO)O2)n1 (stereo partly drawn) [Fapy·dG, N6-(2-Deoxy-α,β-D-erythropentofuranosyl)-2,6-diamino-4-hydroxy-5-formamidopyrimidine]
discrimination against a Fapy·dG:dA base pair [1]: more than 40 fold | incision of mismatched dA opposite Fapy·dG, more slowly than from a duplex containing 8-OxodGuo:dA [2]: 4 fold | efficiency of glycosidic bond hydrolysis of the lesion in a Fapy·dG:dC base pair relative to opposite dA [3]: ~20 times
